Experimental data taken from PubChem BioAssay (NCI).
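Assay format: 96-well plates, 48-hour exposure. TGI: total growth inhibition.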 Where a SMILES comes first, the peptide text is derived from it. [ ]: non-standard residue; d: D form. pGlu = O=C1CC[CH](C(=O)O)N1; Thz = O=C(O)[CH]1CSCN1

Experiments:
Assay in all cases: inhibition of tumour cell growth, NCI panel, 48 h
[1] = system: 786-0 renal
[2] = system: CCRF-CEM leukemia
[3] = system: EKVX NSCLC
[4] = system: LOX IMVI melanoma
[5] = system: MDA-N
[6] = system: NCI-H23 lung
[7] = system: NCI-H460 lung
[8] = system: NCI-H522 lung
[9] = system: OVCAR-5 ovarian
[10] = system: RXF 393 renal
[11] = system: UACC-62 melanoma
[12] = system: COLO 205 colon

Row | SMILES | TGI [1] [µM] | TGI [2] [µM] | TGI [3] [µM] | TGI [4] [µM] | TGI [5] [µM] | TGI [6] [µM] | TGI [7] [µM] | TGI [8] [µM] | TGI [9] [µM] | TGI [10] [µM] | TGI [11] [µM] | TGI [12] [µM]
1 | Nc1nc(Cl)cc(NCC2(CCO)CCC2)n1 | > 100 | > 100 | > 100 | > 100 | > 100 | > 100 | > 100 | > 100 | > 100 | > 100 | > 10 | 
2 | COC1OC2COC1(OCc1ccccc1)C1OC(C)(C)OC21 (configuration not stated) | > 100 | > 100 | > 100 |  | > 100 | > 100 | > 100 | > 100 | > 100 | > 100 | > 100 | > 100
3 | C=C1C(C(=O)OC)[C@H]1C(=O)OC (some centres not stated) | > 100 |  | > 100 | > 100 | > 100 | > 100 | > 100 | > 100 | > 100 | > 100 | > 100 | > 100
4 | COc1ccc(/[N+]([O-])=C/c2ccc(OC(=S)S)c(OC)c2)cc1 | > 100 |  | > 100 | > 100 | > 100 | > 100 | > 100 | > 100 | > 100 | 50.9 | > 100 | > 100
5 | CCOC(=O)c1c(N)sc2c1CC(C)CC2 (configuration not stated) | 55.3 |  | > 100 | > 100 | > 100 | > 100 | > 100 | 40.5 | > 100 | 44.9 | > 100 | 89.5
6 | COc1ccc(/C=C2\N=C(N3CCCC(CO)C3)NC2=O)cc1 (configuration not stated) | > 100 | > 100 | > 100 | > 100 | > 100 | > 100 |  | > 100 | > 100 | > 100 | > 100 | > 100
7 | Cc1ccc2c(c1)nc1n2C(c2c(F)cccc2F)SC1 (configuration not stated) | > 100 | > 100 | > 100 | > 100 | > 100 | > 100 | > 100 | > 100 | > 100 | 96.4 |  | > 100
8 | CC1C(C)(C)C23CC12C1(OCCO1)C3Br (configuration not stated) | > 100 | > 100 | > 100 | > 100 | > 100 | > 100 | > 100 |  | > 100 | > 100 | > 100 | > 100
9 | COC(=O)CCc1ccc(CCC(=O)OC)cc1 | > 100 | > 100 | > 100 | > 100 | > 100 | > 100 | > 100 | > 100 | > 100 | > 100 |  | 
10 | COc1ccc(C2CC(c3c(O)ccc4ccccc34)=NN2)cc1OC (configuration not stated) |  | > 100 | 22.1 |  | 22.8 | 13.8 | 8.24 | 8.58 | 18.2 | 24.6 | 13.6 | 46.5
11 | COC(=O)C1CCC(=O)N1C(c1ccc(OC)cc1)c1cc(OC)c(OC)c(OC)c1 (configuration not stated) | > 100 | > 100 | > 100 | > 36.9 | 1.97 | > 100 |  | 0.212 | > 100 | 0.361 | > 100 | 0.802
12 | Cc1nc2c(c(N3CCN(C)CC3)n1)Cc1ccccc1-2 | > 100 | > 100 | > 100 |  | > 100 | > 100 | 47.4 | 56.4 | > 100 | > 100 | > 100 | > 100
13 | COC(=O)c1cc2c(c(C(=O)OC)c1)CCC2 | > 100 | > 100 | > 100 | > 100 | > 100 | > 100 | > 100 | > 100 | > 100 | > 100 |  | 
14 | CCCCSC1=N/C(=C\c2ccccc2O)C(=O)N1 | > 100 |  | > 100 | > 100 | > 100 | > 100 | > 100 | > 100 | > 100 | > 100 | > 100 | > 100
15 | COc1ccc(S(=O)(=O)Nc2ccc(-c3csc(N4C(=O)/C(=C/c5ccccc5[N+](=O)[O-])N=C4c4ccccc4)n3)cc2)cc1Cl | > 100 |  |  | > 100 | > 100 | 76.8 | > 100 | > 100 | > 100 | > 100 | > 100 | > 100
16 | CC(C)(C)C1=C(Br)C(F)(C(C)(C)C)OP1(=O)c1ccccc1 (configuration not stated) | 29.6 |  | 33.6 | 36.4 | 34.7 | 37.9 | 35.6 | 30.8 | 36.6 | 24.5 | 29.3 | 29.4

Row | SMILES | TGI [1] [µM] | TGI [2] [µM] | TGI [3] [µM] | TGI [4] [µM] | TGI [5] [µM] | TGI [6] [µM] | TGI [7] [µM] | TGI [8] [µM] | TGI [9] [µM] | TGI [10] [µM] | TGI [11] [µM] | TGI [12] [µM]
17 | COC(NC(=O)Nc1ccc(C)cc1)(C(F)(F)F)C(F)(F)F | > 100 | > 100 |  | > 100 | 94.6 | 89.8 | > 100 | 60.1 | > 100 | 71.7 | > 100 | 36.8
18 | Cc1cc(N(CCC#N)CCC#N)ccc1/C(N=Nc1ccc([N+](=O)[O-])cc1)=N\NC(=O)c1cc(Cl)ccc1O | > 100 | > 100 | 82.4 |  | > 100 | 39.1 | > 100 | 23.9 | > 100 | > 100 | 67.6 | 54.2
19 | O=c1[nH]c(Nc2ccc(Br)c(C(F)(F)F)c2)nc2nc[nH]c12 | > 100 | > 100 | > 100 | > 100 | > 100 | > 100 | > 100 | 63.5 | > 100 |  | 61.6 | 41
20 | COC(=O)C(Cc1c[nH]c2ccccc12)NC(=O)C(Cc1cnc[nH]1)NC(=O)C1CCC(=O)N1C(=O)OCc1ccccc1 (configuration not stated) | > 100 | > 100 | > 100 |  | > 100 | > 100 | > 100 |  | > 100 | > 100 | > 100 | > 100
21 | NCC(=O)Nc1ccccc1 | > 100 |  | > 100 | > 100 | > 100 | > 100 | > 100 | > 100 | > 100 | > 100 | > 100 | 
22 | Cc1ncn(-c2ccccc2O)c1C | > 100 | > 100 | > 100 | > 100 | > 100 | > 100 |  | > 100 | > 100 | > 100 | > 100 | > 100
23 | Cc1nc(OCc2ccccc2)c2ncn(CCO)c2n1 | > 100 | > 100 |  | > 100 | > 100 | > 100 | > 100 | > 100 | > 100 | > 100 | > 100 | > 100
24 | CCOC(=O)C(NC(=O)c1cccc(Cl)c1)(Nc1ccc(S(=O)(=O)Nc2cc(C)on2)cc1)C(F)(F)F (configuration not stated) | > 100 | > 100 | > 100 | > 100 | > 100 | > 100 | > 100 | > 100 | > 100 | > 100 |  | > 100
25 | CCOP(=O)(CC(=O)C1CC1)OCC | > 100 | > 100 | > 100 | > 100 | > 100 | > 100 | > 100 | > 100 | > 100 |  | > 100 | > 100
26 | COc1cc(C2C=C(c3ccccc3)Oc3cc4c(cc32)OCO4)cc(OC)c1OC (configuration not stated) | > 19.6 | > 100 | > 100 | > 54.8 | > 16.6 | > 27 | > 100 |  | > 100 | > 100 | > 100 | > 17.1
27 | O=C1CCC(C(=O)N2CSCC2C(=O)O)N1 (configuration not stated) ([pGlu]-[Thz]-OH; configuration not given here) | > 100 | > 100 |  | > 100 | > 100 | > 100 | > 100 | > 100 | > 100 | > 100 | > 100 | 
28 | Cc1cn(C2CC(n3cc(Cn4ccc(=O)[nH]c4=O)nn3)C(CO)O2)c(=O)[nH]c1=O (configuration not stated) |  | > 100 |  |  | > 100 | > 100 |  |  | > 100 | > 100 | > 100 | > 100
29 | CO/C=C(/C(=O)OC)[C@@H]1C[C@@H]1c1ccc2ccccc2c1 | > 100 | 63.1 | 60 |  | 65.2 | > 100 | > 100 | 28.5 | > 100 | > 100 | > 100 | 32.9
30 | Fc1cc(C2=Nn3c(COc4ccccc4Cl)nnc3S/C2=C\c2ccc(Cl)cc2)c(Cl)cc1Cl | 26.5 | > 100 | > 100 | 25.2 | 6.23 | 6.33 | > 100 | 22.6 | > 100 | 28 |  | 
31 | COc1ccc(C(=O)/C=C/c2ccc(OCCCCCCCCCCOc3ccc(/C=C/C(=O)c4ccc(OC)cc4)cc3)cc2)cc1 | > 100 | > 100 | > 100 |  | > 100 |  | > 100 |  | > 100 | > 100 | > 100 | > 100
